Test system: NHBE cells
Assay: Biolog metabolic array: substrate use by NHBE cells with or without CA09 infection
Assay type: cell-based, human
Conditions: for Substrate use, 590 nm absorbance normalized to zero hour, 1 hr: Biolog PMM2, 1 hr; for Substrate use, 590 nm absorbance normalized to zero hour, 5 hr: Biolog PMM2, 5 hr; for Substrate use, 590 nm absorbance normalized to zero hour, 7 hr: Biolog PMM2, 7 hr; for Substrate use, 590 nm absorbance normalized to zero hour, 0 hr: Biolog PMM2, 0 hr
[1] = Control (uninfected) NHBE cells
[2] = Virus (CA09-infected, MOI 1) NHBE cells
[3] = Virus: CA09-infected NHBE cells, MOI 1, Biolog PMM2
[4] = Virus (CA09, MOI 1) infected NHBE cells
[5] = Virus (CA09-infected NHBE cells, MOI 1)

COC(=O)CCC(=O)O [Mono Methyl Succinate]
590 nm absorbance normalized to zero hour (substrate use), 1 hr [1]: 1.07 | 590 nm absorbance normalized to zero hour (substrate use), 2 hr [1]: 1.14 | 590 nm absorbance normalized to zero hour (substrate use), 3 hr [1]: 1.10 | 590 nm absorbance normalized to zero hour (substrate use), 4 hr [1]: 1.10 | 590 nm absorbance normalized to zero hour (substrate use), 6 hr [1]: 0.53 | 590 nm absorbance normalized to zero hour (substrate use), 8 hr [1]: 1.09 | 590 nm absorbance normalized to zero hour (substrate use), 9 hr [1]: 1.11 | 590 nm absorbance normalized to zero hour (substrate use), 10 hr [1]: 1.11 | 590 nm absorbance normalized to zero hour (substrate use), 11 hr [1]: 1.11 | Substrate use, 590 nm absorbance normalized to zero hour, 1 hr [1]: 1.07 | Substrate use, 590 nm absorbance normalized to zero hour, 5 hr [1]: 1.13 | Substrate use, 590 nm absorbance normalized to zero hour, 7 hr [1]: 1.07 | 590 nm absorbance normalized to zero hour (substrate use), 1 hr [2]: 1.44 | 590 nm absorbance normalized to zero hour (substrate use), 2 hr [2]: 1.71 | 590 nm absorbance normalized to zero hour (substrate use), 3 hr [2]: 1.97 | 590 nm absorbance normalized to zero hour (substrate use), 4 hr [2]: 2.04 | 590 nm absorbance normalized to zero hour (substrate use), 5 hr [2]: 2.16 | 590 nm absorbance normalized to zero hour (substrate use), 6 hr [2]: 2.33 | 590 nm absorbance normalized to zero hour (substrate use), 7 hr [2]: 2.40 | 590 nm absorbance normalized to zero hour (substrate use), 8 hr [2]: 2.45 | 590 nm absorbance normalized to zero hour (substrate use), 9 hr [2]: 2.58 | 590 nm absorbance normalized to zero hour (substrate use), 10 hr [2]: 2.55 | 590 nm absorbance normalized to zero hour (substrate use), 11 hr [2]: 2.67 | 590 nm absorbance normalized to zero hour (substrate use), 1 hr [3]: 1.44 | 590 nm absorbance normalized to zero hour (substrate use), 2 hr [3]: 1.71 | 590 nm absorbance normalized to zero hour (substrate use), 3 hr [3]: 1.97 | 590 nm absorbance normalized to zero hour (substrate use), 4 hr [3]: 2.04 | 590 nm absorbance normalized to zero hour (substrate use), 5 hr [3]: 2.16 | 590 nm absorbance normalized to zero hour (substrate use), 6 hr [3]: 2.33 | 590 nm absorbance normalized to zero hour (substrate use), 7 hr [3]: 2.40 | 590 nm absorbance normalized to zero hour (substrate use), 8 hr [3]: 2.45 | 590 nm absorbance normalized to zero hour (substrate use), 9 hr [3]: 2.58 | 590 nm absorbance normalized to zero hour (substrate use), 10 hr [3]: 2.55 | 590 nm absorbance normalized to zero hour (substrate use), 11 hr [3]: 2.67

CC(=O)N[C@H]1[C@H]([C@H](O)[C@H](O)CO)OC(O)(C(=O)O)C[C@@H]1O (stereo partly drawn) [n-acetyl-neuraminic acid]
590 nm absorbance normalized to zero hour (substrate use), 0 hr [1]: 1.00 | 590 nm absorbance normalized to zero hour (substrate use), 1 hr [1]: 0.19 | 590 nm absorbance normalized to zero hour (substrate use), 2 hr [1]: 0.21 | 590 nm absorbance normalized to zero hour (substrate use), 3 hr [1]: 0.19 | 590 nm absorbance normalized to zero hour (substrate use), 4 hr [1]: 0.20 | 590 nm absorbance normalized to zero hour (substrate use), 6 hr [1]: 0.36 | 590 nm absorbance normalized to zero hour (substrate use), 8 hr [1]: 0.27 | 590 nm absorbance normalized to zero hour (substrate use), 9 hr [1]: 0.29 | 590 nm absorbance normalized to zero hour (substrate use), 10 hr [1]: 0.32 | 590 nm absorbance normalized to zero hour (substrate use), 11 hr [1]: 0.25 | Substrate use, 590 nm absorbance normalized to zero hour, 0 hr [1]: 1.00 | Substrate use, 590 nm absorbance normalized to zero hour, 1 hr [1]: 0.19 | Substrate use, 590 nm absorbance normalized to zero hour, 5 hr [1]: 0.23 | Substrate use, 590 nm absorbance normalized to zero hour, 7 hr [1]: 0.26 | Substrate use, 590 nm absorbance normalized to zero hour, 0 hr [4]: 1.00 | Substrate use, 590 nm absorbance normalized to zero hour, 1 hr [4]: 4.77 | Substrate use, 590 nm absorbance normalized to zero hour, 5 hr [4]: 1.43 | Substrate use, 590 nm absorbance normalized to zero hour, 7 hr [4]: 1.58 | 590 nm absorbance normalized to zero hour (substrate use), 0 hr [2]: 1.00 | 590 nm absorbance normalized to zero hour (substrate use), 1 hr [2]: 4.77 | 590 nm absorbance normalized to zero hour (substrate use), 2 hr [2]: 3.35 | 590 nm absorbance normalized to zero hour (substrate use), 3 hr [2]: 3.95 | 590 nm absorbance normalized to zero hour (substrate use), 4 hr [2]: 3.57 | 590 nm absorbance normalized to zero hour (substrate use), 6 hr [2]: 2.71 | 590 nm absorbance normalized to zero hour (substrate use), 8 hr [2]: 1.60 | 590 nm absorbance normalized to zero hour (substrate use), 9 hr [2]: 1.61 | 590 nm absorbance normalized to zero hour (substrate use), 10 hr [2]: 1.82 | 590 nm absorbance normalized to zero hour (substrate use), 11 hr [2]: 2.21

Nc1ncnc2c1ncn2[C@@H]1O[C@H](CO)[C@@H](O)[C@H]1O [Adenosine]
590 nm absorbance normalized to zero hour (substrate use), 1 hr [1]: 2.85 | 590 nm absorbance normalized to zero hour (substrate use), 2 hr [1]: 1.34 | 590 nm absorbance normalized to zero hour (substrate use), 3 hr [1]: 1.67 | 590 nm absorbance normalized to zero hour (substrate use), 4 hr [1]: 1.86 | 590 nm absorbance normalized to zero hour (substrate use), 6 hr [1]: 2.50 | 590 nm absorbance normalized to zero hour (substrate use), 8 hr [1]: 3.10 | 590 nm absorbance normalized to zero hour (substrate use), 9 hr [1]: 3.78 | 590 nm absorbance normalized to zero hour (substrate use), 10 hr [1]: 3.46 | 590 nm absorbance normalized to zero hour (substrate use), 11 hr [1]: 3.32 | Substrate use, 590 nm absorbance normalized to zero hour, 1 hr [1]: 2.85 | Substrate use, 590 nm absorbance normalized to zero hour, 5 hr [1]: 2.21 | Substrate use, 590 nm absorbance normalized to zero hour, 7 hr [1]: 2.97 | 590 nm absorbance normalized to zero hour (substrate use), 1 hr [5]: 1.39 | 590 nm absorbance normalized to zero hour (substrate use), 2 hr [5]: 1.23 | 590 nm absorbance normalized to zero hour (substrate use), 3 hr [5]: 1.60 | 590 nm absorbance normalized to zero hour (substrate use), 4 hr [5]: 1.77 | 590 nm absorbance normalized to zero hour (substrate use), 5 hr [5]: 1.96 | 590 nm absorbance normalized to zero hour (substrate use), 6 hr [5]: 2.16 | 590 nm absorbance normalized to zero hour (substrate use), 7 hr [5]: 2.38 | 590 nm absorbance normalized to zero hour (substrate use), 8 hr [5]: 2.56 | 590 nm absorbance normalized to zero hour (substrate use), 9 hr [5]: 2.88 | 590 nm absorbance normalized to zero hour (substrate use), 10 hr [5]: 2.56 | 590 nm absorbance normalized to zero hour (substrate use), 11 hr [5]: 2.60 | 590 nm absorbance normalized to zero hour (substrate use), 1 hr [3]: 1.39 | 590 nm absorbance normalized to zero hour (substrate use), 2 hr [3]: 1.23 | 590 nm absorbance normalized to zero hour (substrate use), 3 hr [3]: 1.60 | 590 nm absorbance normalized to zero hour (substrate use), 4 hr [3]: 1.77 | 590 nm absorbance normalized to zero hour (substrate use), 5 hr [3]: 1.96 | 590 nm absorbance normalized to zero hour (substrate use), 6 hr [3]: 2.16 | 590 nm absorbance normalized to zero hour (substrate use), 7 hr [3]: 2.38 | 590 nm absorbance normalized to zero hour (substrate use), 8 hr [3]: 2.56 | 590 nm absorbance normalized to zero hour (substrate use), 9 hr [3]: 2.88 | 590 nm absorbance normalized to zero hour (substrate use), 10 hr [3]: 2.56 | 590 nm absorbance normalized to zero hour (substrate use), 11 hr [3]: 2.60
